The values that follow come from patent US20080188528A1, “Modulators of C3a receptor and methods of use thereof” (priority 2006, published 2008).

Counter-ions that a name gives are not always drawn. Some results are limits rather than exact numbers.

This experiment concerns the target T1, human C3a receptor (C3aR) (Homo sapiens, UniProt Q16581).
T1 construct: expressed in transfected cells
T1 sequence (Q16581 1-482): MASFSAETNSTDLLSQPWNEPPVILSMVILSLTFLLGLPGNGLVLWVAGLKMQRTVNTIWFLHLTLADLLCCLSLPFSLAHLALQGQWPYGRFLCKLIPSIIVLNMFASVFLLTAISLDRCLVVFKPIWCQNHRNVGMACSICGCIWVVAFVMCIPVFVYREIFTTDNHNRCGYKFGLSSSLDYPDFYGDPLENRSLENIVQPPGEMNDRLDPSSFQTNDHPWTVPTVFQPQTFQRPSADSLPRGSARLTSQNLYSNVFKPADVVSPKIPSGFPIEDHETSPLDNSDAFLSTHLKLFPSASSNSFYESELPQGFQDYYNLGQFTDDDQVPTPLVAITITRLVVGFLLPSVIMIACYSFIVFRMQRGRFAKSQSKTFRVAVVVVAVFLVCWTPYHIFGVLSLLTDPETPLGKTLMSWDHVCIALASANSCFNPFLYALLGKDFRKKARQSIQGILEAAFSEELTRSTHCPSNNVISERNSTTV
Put plainly: Inhibition of human [125I]-C3a binding to human C3a receptor (SPA, membranes of HEK293 cells expressing recombinant C3aR). Conditions: 0.1 nM [125I]-C3a, 3 hours at room temperature; Table 1. How it is done: Inhibition of human [^125I]-C3a binding to human C3a receptor
Binding of human [^125I]-C3a to human C3a receptor (C3aR) was done using cell membranes from HEK293 cells stably expressing recombinant C3aR, in a homogeneous scintillation proximity assay (SPA). The C3aR cell membranes were pre-coupled over-night at 4° C. to WGA-PVT SPA beads (Amersham) at a ratio of 10 μg cell membrane to 0.5 mg beads/assay. Assay was performed in 96-well microtiter Optiplates (Packard) by mixing coupled beads and 0.1 nM [^125I]-C3a (2200 Ci/mmol, Perkin Elmer Life Sciences), in a total volume of […] binding buffer (20 mM HEPES, pH 7.4, 125 mM NaCl, 5 mM KCl, 1 mM CaCl2, 1 mM MgCl2, 0.25% BSA, 0.2% CHAPS). Test compounds were diluted in DMSO and were tested for their inhibitory potential in the assay (final concentration≦1% DMSO). Incubation was done for 3 hours at room temperature followed by reading in a TopCount scintillation microplate reader. Non-specific binding was determined by adding 1 μM unlabeled C3a (Calbiochem) to the assay mixture. Calculation of the IC50 was done as above using a nonlinear least square fitting program, with Graphpad Prism.
Turning to `N=C(N)NCCC[C@H](NC(=O)c1cccn(Cc2ccccc2)c1=O)C(=O)O` [Compound 1, (2S)-2-{[(1-benzyl-2-oxo-1,2-dihydropyridin-3-yl)carbonyl]amino}-5-carbamimidamidopentanoic acid•TFA], the IC50 (as a rule, the concentration at which inhibition is half-maximal) was in the range of 50 to 500 nM.

With `N=C(N)NCCC[C@@H](NC(=O)c1cccn(Cc2ccccc2)c1=O)C(=O)O` [Compound 2, (2R)-2-{[(1-benzyl-2-oxo-1,2-dihydropyridin-3-yl)carbonyl]amino}-5-carbamimidamidopentanoic acid•TFA], the IC50 was in the range of 500 to 20000 nM. For the compound `N=C(N)NCCC[C@H](NC(=O)c1cccn(Cc2ccccc2Br)c1=O)C(=O)O` [Compound 3, (2S)-2-({[1-(2-bromobenzyl)-2-oxo-1,2-dihydropyridin-3-yl]carbonyl}amino)-5-carbamimidamidopentanoic acid•TFA], the IC50 was under 50 nM. The result for `N=C(N)NCCC[C@H](NC(=O)c1cccn(Cc2cccc(Br)c2)c1=O)C(=O)O` [Compound 4, (2S)-2-({[1-(3-bromobenzyl)-2-oxo-1,2-dihydropyridin-3-yl]carbonyl}amino)-5-carbamimidamidopentanoic acid•TFA] reads under 50 nM; that for `N=C(N)NCCC[C@H](NC(=O)c1cccn(Cc2ccc(Br)cc2)c1=O)C(=O)O` [Compound 5, (2S)-2-({[1-(4-bromobenzyl)-2-oxo-1,2-dihydropyridin-3-yl]carbonyl}amino)-5-carbamimidamidopentanoic acid•TFA], under 50 nM; that for `CC(C)c1ccccc1Cn1cccc(C(=O)N[C@@H](CCCNC(=N)N)C(=O)O)c1=O` [Compound 6, (2S)-5-carbamimidamido-2-({[1-(2-isopropylbenzyl)-2-oxo-1,2-dihydropyridin-3-yl]carbonyl}amino)pentanoic acid•TFA], 50 to 500 nM. The result for `CC(C)c1cccc(Cn2cccc(C(=O)N[C@@H](CCCNC(=N)N)C(=O)O)c2=O)c1` [Compound 7, (2S)-5-carbamimidamido-2-({[1-(3-isopropylbenzyl)-2-oxo-1,2-dihydropyridin-3-yl]carbonyl}amino)pentanoic acid•TFA] reads 50 to 500 nM; that for `CC(C)c1ccc(Cn2cccc(C(=O)N[C@@H](CCCNC(=N)N)C(=O)O)c2=O)cc1` [Compound 8], under 50 nM.

Consider `Cn1cccc(C(=O)N[C@@H](CCCNC(=N)N)C(=O)O)c1=O` [Compound 9, (2S)-5-carbamimidamido-2-{[(1-methyl-2-oxo-1,2-dihydropyridin-3-yl)carbonyl]amino}pentanoic acid•TFA], for which the IC50 lay in the range of 500 to 20000 nM. The result for `N=C(N)NCCC[C@H](NC(=O)c1cccn(C2c3ccccc3-c3ccccc32)c1=O)C(=O)O` [Compound 10, (2S)-5-carbamimidamido-2-({[1-(9H-fluoren-9-yl)-2-oxo-1,2-dihydropyridin-3-yl]carbonyl}amino)pentanoic acid•TFA] reads 50 to 500 nM; that for `N=C(N)NCCC[C@H](NC(=O)c1cccn(CC(c2ccccc2)c2ccccc2)c1=O)C(=O)O` [Compound 11, (2S)-5-carbamimidamido-2-({[1-(2,2-diphenylethyl)-2-oxo-1,2-dihydropyridin-3-yl]carbonyl}amino)pentanoic acid•TFA], under 50 nM; that for `N=C(N)NCCC[C@H](NC(=O)c1cccn(CCC(c2ccccc2)c2ccccc2)c1=O)C(=O)O` [Compound 12, (2S)-5-carbamimidamido-2-({[1-(3,3-diphenylpropyl)-2-oxo-1,2-dihydropyridin-3-yl]carbonyl}amino)pentanoic acid•TFA], under 50 nM. The result for `N=C(N)NCCC[C@H](NC(=O)c1cccn(Cc2ccc3ccccc3c2)c1=O)C(=O)O` [Compound 13, (2S)-5-carbamimidamido-2-({[1-(2-naphthylmethyl)-2-oxo-1,2-dihydropyridin-3-yl]carbonyl}amino)pentanoic acid•TFA] reads under 50 nM; that for `N=C(N)NCCC[C@H](NC(=O)c1cccn(Cc2cccc3ccccc23)c1=O)C(=O)O` [Compound 14, (2S)-5-carbamimidamido-2-({[1-(1-naphthylmethyl)-2-oxo-1,2-dihydropyridin-3-yl]carbonyl}amino)pentanoic acid•TFA], under 50 nM; that for `N=C(N)NCCC[C@H](NC(=O)c1cccn(Cc2ccc3ccccc3n2)c1=O)C(=O)O` [Compound 15, (2S)-5-carbamimidamido-2-({[2-oxo-1-(quinolin-2-ylmethyl)-1,2-dihydropyridin-3-yl]carbonyl}amino)pentanoic acid•TFA], 50 to 500 nM.

In the case of `CC1(C)CCC(C)(C)c2cc(Cn3cccc(C(=O)N[C@@H](CCCNC(=N)N)C(=O)O)c3=O)ccc21` [Compound 16, (2S)-5-carbamimidamido-2-[({2-oxo-1-[(5,5,8,8-tetramethyl-5,6,7,8-tetrahydro-2-naphthyl)methyl]-1,2-dihydropyridin-3-yl}carbonyl)amino]pentanoic acid•TFA], the half-inhibitory concentration (IC50) was in the range of 500 to 20000 nM. The result for `N=C(N)NCCC[C@H](NC(=O)c1cccn(Cc2ccc3cc(F)ccc3c2)c1=O)C(=O)O` [Compound 17, (2S)-5-carbamimidamido-2-[({1-[(6-fluoro-2-naphthyl)methyl]-2-oxo-1,2-dihydropyridin-3-yl}carbonyl)amino]pentanoic acid•TFA] reads under 50 nM; that for `COc1cc2ccccc2cc1Cn1cccc(C(=O)N[C@@H](CCCNC(=N)N)C(=O)O)c1=O` [Compound 18, (2S)-5-carbamimidamido-2-[({1-[(3-methoxy-2-naphthyl)methyl]-2-oxo-1,2-dihydropyridin-3-yl}carbonyl)amino]pentanoic acid•TFA], 50 to 500 nM.

In the case of `COc1ccc2cc(Cn3cccc(C(=O)N[C@@H](CCCNC(=N)N)C(=O)O)c3=O)ccc2c1` [Compound 19, (2S)-5-carbamimidamido-2-[({1-[(6-methoxy-2-naphthyl)methyl]-2-oxo-1,2-dihydropyridin-3-yl}carbonyl)amino]pentanoic acid•TFA], the IC50 was 50 to 500 nM. The result for `N=C(N)NCCC[C@H](NC(=O)c1cccn(Cc2ccccc2-c2ccccc2)c1=O)C(=O)O` [Compound 20, (2S)-2-({[1-(biphenyl-2-ylmethyl)-2-oxo-1,2-dihydropyridin-3-yl]carbonyl}amino)-5-carbamimidamidopentanoic acid•TFA] reads under 50 nM; that for `N=C(N)NCCC[C@H](NC(=O)c1cccn(Cc2cccc(-c3ccccc3)c2)c1=O)C(=O)O` [Compound 21, (2S)-2-({[1-(biphenyl-3-ylmethyl)-2-oxo-1,2-dihydropyridin-3-yl]carbonyl}amino)-5-carbamimidamidopentanoic acid•TFA], 50 to 500 nM. The result for `N=C(N)NCCC[C@H](NC(=O)c1cccn(Cc2ccc(-c3ccccc3)cc2)c1=O)C(=O)O` [Compound 22, (2S)-2-({[1-(biphenyl-4-ylmethyl)-2-oxo-1,2-dihydropylidin-3-yl]carbonyl}amino)-5-carbamimidamidopentanoic acid] reads under 50 nM.

For the compound `N=C(N)NCCC[C@H](NC(=O)c1cccn(Cc2ccccc2Cc2ccccc2)c1=O)C(=O)O` [Compound 23, (2S)-2-({[1-(2-benzylbenzyl)-2-oxo-1,2-dihydropyridin-3-yl]carbonyl}amino)-5-carbamimidamidopentanoic acid•TFA], the IC50 is under 50 nM.
